According to patent US7378082B1, “Method for treating allergic rhinitis without adverse effects” (Inspire Pharmaceuticals, Inc., priority 2007, dated 2008):

Conditions: intranasal 0.05% or 0.1% nasal spray; after first dose (Day 1) and last dose (Day 14); 43 subjects
Method: Each group started with approximately 190 subjects.
Plasma epinastine levels following intranasal administration were determined.

## NC1=NCC2c3ccccc3Cc3ccccc3N12 (stereo not shown) [epinastine, 3-amino-9,13b-dihydro-1H-dibenz-[c,-f]imidazol[1,5-a]azepine]
  Plasma concentrations of epinastine: < 1 ng/mL
